What was measured:
Type in all cases: functional
Conditions in all cases: 120 h
Echinochloa esculenta [1] = assay: Herbicidal activity against Echinochloa esculenta assessed as inhibition of seed germination at 1 nM after 5 days relative to control
Echinochloa esculenta [2] = assay: Herbicidal activity against Echinochloa esculenta assessed as inhibition of seed germination at 10 nM after 5 days relative to control
Echinochloa esculenta [3] = assay: Herbicidal activity against Echinochloa esculenta assessed as inhibition of seed germination at 100 nM after 5 days relative to control
Echinochloa esculenta [4] = assay: Herbicidal activity against Echinochloa esculenta assessed as inhibition of seed germination at 1000 nM after 5 days relative to control

| Structure (SMILES) | inhibition at 0.001 µM (Echinochloa esculenta [1]) [%] | inhibition at 0.01 µM (Echinochloa esculenta [2]) [%] | inhibition at 0.1 µM (Echinochloa esculenta [3]) [%] | inhibition at 1 µM (Echinochloa esculenta [4]) [%] |
| --- | --- | --- | --- | --- |
| COCC1COc2cc(C(O)C3CCCN(Cc4ccccc4)C3=O)ccc2O1 (mixture of isomers) | < 49 | < 49 | > 90 | > 90 |
| O=C1C(C(O)c2ccccc2[N+](=O)[O-])CCCN1Cc1ccccc1 (mixture of isomers) | < 49 | < 49 | < 49 | 50 |
| COc1ccc(C(O)C2CCCN(Cc3ccccc3)C2=O)cc1 (mixture of isomers) | < 49 | < 49 | < 49 | > 90 |
| O=C1C(C(O)c2ccc3c(c2)OCC(c2ccccc2)O3)CCCN1Cc1ccccc1 (mixture of isomers) | < 49 | < 49 | < 49 | < 49 |
| O=C1C(C(O)c2ccc3c(c2)OCCO3)CCN1C/C=C/c1ccccc1 (mixture of isomers) | < 49 | < 49 | < 49 | > 90 |
| O=C1C(C(O)c2ccc3ccccc3n2)CCCN1Cc1ccccc1 (mixture of isomers) | < 49 | < 49 | < 49 | > 90 |
| Cc1ccc(C(O)C2CCCN(Cc3ccccc3)C2=O)cc1 (mixture of isomers) | < 49 | < 49 | < 49 | > 90 |
| CCOCC1COc2cc(C(O)C3CCCN(Cc4ccccc4)C3=O)ccc2O1 (mixture of isomers) | < 49 | < 49 | 50 | 50 |
| O=C1C(C(O)c2ccc([N+](=O)[O-])cc2)CCCN1Cc1ccccc1 (mixture of isomers) | < 49 | < 49 | < 49 | 50 |
| CCCCCCC(O)C1CCCN(Cc2ccccc2)C1=O (stereo not drawn) | < 49 | < 49 | 50 | > 90 |
| O=C1C(C(O)c2ccc(Oc3ccccc3)cc2)CCCN1Cc1ccccc1 (mixture of isomers) | < 49 | < 49 | < 49 | < 49 |
| O=C1C(C(O)c2ccccc2)CCCN1Cc1ccccc1 (mixture of isomers) | < 49 | < 49 | < 49 | > 90 |
| COc1cc2c(cc1C(O)C1CCCN(Cc3ccccc3)C1=O)OCCO2 (mixture of isomers) | < 49 | < 49 | 50 | 50 |
| O=C1C(C(O)c2ccc3c(c2)OCO3)CCCN1Cc1ccccc1 (mixture of isomers) | < 49 | < 49 | < 49 | < 49 |
| O=C1C(C(O)c2ccc3ccccc3c2)CCCN1Cc1ccccc1 (mixture of isomers) | < 49 | < 49 | < 49 | < 49 |
| O=C1C(C(O)c2ccc3c(c2)OCCO3)Cc2ccccc2N1C/C=C/c1ccccc1 (mixture of isomers) | < 49 | < 49 | < 49 | < 49 |
| O=C1C(C(O)c2ccnc3ccccc23)CCCN1Cc1ccccc1 (mixture of isomers) | < 49 | < 49 | < 49 | > 90 |
| O=C1C(C(O)c2ccc(O)c(O)c2)CCCN1Cc1ccccc1 (mixture of isomers) | < 49 | < 49 | < 49 | 50 |
| COc1ccccc1C(O)C1CCCN(Cc2ccccc2)C1=O (mixture of isomers) | < 49 | < 49 | < 49 | 50 |

| Structure (SMILES) | inhibition at 0.001 µM (Echinochloa esculenta [1]) [%] | inhibition at 0.01 µM (Echinochloa esculenta [2]) [%] | inhibition at 0.1 µM (Echinochloa esculenta [3]) [%] | inhibition at 1 µM (Echinochloa esculenta [4]) [%] |
| --- | --- | --- | --- | --- |
| O=C1C(C(O)c2cnc3ccccc3c2)CCCN1Cc1ccccc1 (mixture of isomers) | < 49 | < 49 | < 49 | < 49 |
| O=C1C(C(O)c2ccc(C(F)(F)F)cc2)CCCN1Cc1ccccc1 (mixture of isomers) | < 49 | < 49 | < 49 | 50 |
| O=C1C(C(O)c2ccccc2Cl)CCCN1Cc1ccccc1 (mixture of isomers) | < 49 | < 49 | < 49 | > 90 |
| O=C1C(C(O)c2cccc(Cl)c2)CCCN1Cc1ccccc1 (mixture of isomers) | < 49 | < 49 | < 49 | > 90 |
| O=C1C(C(O)c2cccc(Oc3ccccc3)c2)CCCN1Cc1ccccc1 (mixture of isomers) | < 49 | < 49 | < 49 | 50 |
| O=C1C(C(O)c2cccc([N+](=O)[O-])c2)CCCN1Cc1ccccc1 (mixture of isomers) | < 49 | < 49 | < 49 | 50 |
| COc1cc(C(O)C2CCCN(Cc3ccccc3)C2=O)cc2c1OCCO2 (mixture of isomers) | < 49 | < 49 | < 49 | 50 |
| O=C1C(C(O)c2cccc(O)c2)CCCN1Cc1ccccc1 (mixture of isomers) | < 49 | < 49 | < 49 | 50 |
| O=C1C(C(O)C2CCCCC2)CCCN1Cc1ccccc1 (mixture of isomers) | < 49 | < 49 | < 49 | < 49 |
| O=C1C(C(O)c2cccc(C(F)(F)F)c2)CCCN1Cc1ccccc1 (stereo not drawn) | < 49 | < 49 | 50 | 50 |
| COc1c(C(O)C2CCCN(Cc3ccccc3)C2=O)ccc2c1OCCO2 (mixture of isomers) | < 49 | < 49 | < 49 | > 90 |
| O=C1C(C(O)c2cccc3ccccc23)CCCN1Cc1ccccc1 (mixture of isomers) | < 49 | < 49 | < 49 | < 49 |
| O=C1C(C(O)C/C=C/c2ccccc2)CCCN1Cc1ccccc1 (mixture of isomers) | < 49 | < 49 | 50 | 50 |
| O=C1C(C(O)c2ccc(Cl)c(Cl)c2)CCCN1Cc1ccccc1 (mixture of isomers) | < 49 | < 49 | < 49 | 50 |
| COc1cccc(C(O)C2CCCN(Cc3ccccc3)C2=O)c1 (mixture of isomers) | < 49 | < 49 | < 49 | < 49 |
| Cc1cccc(C(O)C2CCCN(Cc3ccccc3)C2=O)c1 (mixture of isomers) | < 49 | < 49 | < 49 | > 90 |
| O=C1C(C(O)c2cccnc2)CCCN1Cc1ccccc1 (mixture of isomers) | < 49 | < 49 | < 49 | 50 |
| O=C1C(C(O)c2ccc3c(c2)OCCO3)CCCCN1C/C=C/c1ccccc1 (mixture of isomers) | < 49 | < 49 | < 49 | > 90 |
